Results on 31 compounds are retold here after ChEMBL document CHEMBL3817779, “Identification of novel 2-aminothiazole conjugated nitrofuran as antitubercular and antibacterial agents” (Bioorg Med Chem Lett, 2016).

Converted amounts (≈) assume the structure as drawn.

One data set has as its system Vero. The experiment in a line: Cytotoxicity against African green monkey Vero cells assessed as reduction in cell viability after 72 hrs by MTT assay. It is filed as cell-based. Particulars: Chlorocebus sabaeus. (In general: Tetrazolium assays rely on reduction of a dye to a coloured formazan, in cell work by metabolically active cells.)
Data set [1] concerns Mycobacterium tuberculosis. It is filed as functional. The note with it: H37Ra ATCC 25177.
Data set [2] has as its system Mycobacterium tuberculosis. It is filed as functional. The note with it: H37Ra ATCC 25177. The source holds these as a separate data set.
In data set [3] the test system is Mycobacterium tuberculosis. The data set can be described thus: Antitubercular activity against Mycobacterium tuberculosis H37Rv assessed as inhibition of visible growth after 7 days by microbroth dilution method. It is filed as functional. Particulars: 168 h. (Broth dilution looks for growth in wells or tubes with falling amounts of substance.)
Data set [4] has as its system Staphylococcus aureus. The data set can be described thus: Antibacterial activity against Staphylococcus aureus ATCC 6538. It is filed as functional.
Data set [5] in a line: Aqueous solubility in water at room temperature sonicated for 30 mins followed by overnight incubation by HPLC analysis. It is filed as physicochemical.
The test system of data set [6] is Mycobacterium tuberculosis. The data set can be described thus: microbe, parasite or virus in culture. The note with it: H37Ra ATCC 25177.
Description: Antitubercular activity against Mycobacterium tuberculosis H37Ra ATCC 25177
The subject of data set [7] is Mycobacterium tuberculosis. It is filed as functional. Particulars: H37Ra ATCC 25177. This is another data set of the same source.
The test system of data set [8] is Staphylococcus aureus. The experiment in a line: Antibacterial activity against Staphylococcus aureus ATCC 6538 at 20 uM relative to control. It is filed as functional.

Regarding `O=C(Nc1nc(-c2c(F)cc(F)cc2F)cs1)c1ccc([N+](=O)[O-])o1`, the concentration for half-maximal inhibition (IC50) in the data set on Vero was determined as 19.9 µM. For the same compound, in data set [1], the inhibition at 10 µM was -10.1%. For the same compound, the inhibition at 1 µM in [2] was -4.1%.
For `COc1ccc(-c2csc(NC(=O)c3ccc([N+](=O)[O-])o3)n2)cc1` the same measures were 63 µM, 99.3% and -8.3%.
Take `O=[N+]([O-])c1ccc(C2=NOC(c3ccc(N4CCC(Oc5ccc(OC(F)(F)F)cc5)CC4)cc3)C2)o1` (stereo unspecified): in [3], the minimum inhibitory concentration (MIC) amounted to 0.024 µg/mL (≈ 0.0464 µM).
On to `O=C(Nc1nc(-c2cccc(NS(=O)(=O)Cc3ccccc3)c2)cs1)c1ccc([N+](=O)[O-])o1`, for which the IC50 in the data set on Vero came out at 59.3 µM. The same compound had an MIC against Staphylococcus aureus [4] of 1.52 µg/mL (≈ 3.14 µM). This compound yielded a solubility at 0.5 h in data set [5] of 0.48 µg/mL (≈ 0.991 µM). Besides, the MIC90 in [6] came to 0.61 µg/mL (≈ 1.26 µM). Further, the inhibition at 1 µM in data set [2] is 93.9%.
As for `COc1ccc(C(=O)Nc2cccc(-c3csc(NC(=O)c4ccc([N+](=O)[O-])o4)n3)c2)cc1`, the inhibition at 1 µM in [2] was -2.7%.
As for `O=C(Nc1nc(-c2cccc(Cl)c2)cs1)c1ccc([N+](=O)[O-])o1`, the IC50 in the data set with Vero was 43.7 µM. For the same compound, the inhibition at 10 µM in data set [1] was 99.2%. Besides, the inhibition at 1 µM in [2] was found to be 40.5%.
Take `O=C(Nc1nc(-c2cccc(NC(=O)C3CCCC3)c2)cs1)c1ccc([N+](=O)[O-])o1`: the inhibition at 1 µM in data set [2] came out at 0.2%.
On to `Cc1cc(C)c(-c2csc(NC(=O)c3ccc([N+](=O)[O-])o3)n2)c(C)c1`, for which the half-inhibitory concentration (IC50) in the data set with Vero was 30.4 µM. In addition, in [1], the inhibition at 10 µM is -4.3%. Moreover, the inhibition at 1 µM in data set [2] amounted to 0.9%.
In the case of `CS(=O)(=O)Nc1cccc(-c2csc(NC(=O)c3ccc([N+](=O)[O-])o3)n2)c1`, the half-inhibitory concentration (IC50) in the data set on Vero is below 2.81 µM. Further, in [1], the inhibition at 10 µM was found to be 82.1%. Also, the inhibition at 1 µM in data set [2] was -4.1%.
Take `O=C(Nc1nc(-c2cccc(NC(=O)C3CC3)c2)cs1)c1ccc([N+](=O)[O-])o1`: in the data set with Vero, the IC50 is 35.7 µM. Further, the MIC against Staphylococcus aureus [4] amounted to 2.49 µg/mL (≈ 6.25 µM). Also, the concentration in solution in data set [5] (solubility at 0.5 h) was 0.47 µg/mL (≈ 1.18 µM). Besides, the MIC90 in data set [6] came to 0.5 µg/mL (≈ 1.26 µM). In addition, in data set [1], the inhibition at 10 µM is 99.6%. For the same compound, the inhibition at 1 µM in data set [2] was 99.3%.
`CC(C)(C)OC(=O)Nc1cccc(-c2csc(NC(=O)c3ccc([N+](=O)[O-])o3)n2)c1`: the inhibition at 1 µM in data set [2] was 40%.
Take `O=C(Nc1cccc(-c2csc(NC(=O)c3ccc([N+](=O)[O-])o3)n2)c1)c1ccccc1`: the IC50 in the data set on Vero is 50.2 µM. Further, the lowest concentration to inhibit growth in the data set on Staphylococcus aureus [4] (MIC) was 1.36 µg/mL (≈ 3.13 µM). Also, the concentration in solution in data set [5] (solubility at 0.5 h) came to 1.27 µg/mL (≈ 2.92 µM). For the same compound, in data set [6], the MIC90 came out at 0.27 µg/mL (≈ 0.621 µM). Further, in data set [1], the inhibition at 10 µM amounted to 99.5%. For the same compound, the inhibition at 1 µM in data set [2] came out at 98.9%.
Regarding `COc1cccc(-c2csc(NC(=O)c3ccc([N+](=O)[O-])o3)n2)c1`, the inhibition at 20 µM (in data set [7]; in the data set with Staphylococcus aureus [8]) was 99.5% throughout. For the same compound, in the data set with Vero, the IC50 worked out at 58.7 µM. Besides, in data set [1], the inhibition at 10 µM is 100%. Besides, the inhibition at 1 µM in data set [2] amounted to 68.8%.
Consider `CCOc1cccc(-c2csc(NC(=O)c3ccc([N+](=O)[O-])o3)n2)c1`, for which the half-inhibitory concentration (IC50) with Vero is above 90 µM. In the data set on Staphylococcus aureus [4], this compound had an MIC of 4.49 µg/mL (≈ 12.5 µM). Further, in [5], the solubility at 0.5 h amounted to 0.34 µg/mL (≈ 0.946 µM). The same compound had an MIC90 in data set [6] of 0.9 µg/mL (≈ 2.5 µM). Moreover, in data set [1], the inhibition at 10 µM was 99.4%. In addition, in [2], the inhibition at 1 µM was 95.7%.
Take `COc1cccc(-c2csc(NC(=O)c3ccc(N)o3)n2)c1`: the inhibition at 1 µM in data set [2] was found to be 5.2%.
Same read-out and setting: under `Nc1cccc(-c2csc(NC(=O)c3ccc([N+](=O)[O-])o3)n2)c1` stands -1.1%.
`COc1ccccc1-c1csc(NC(=O)c2ccc([N+](=O)[O-])o2)n1`: in the data set with Vero, the half-inhibitory concentration (IC50) was determined as 42 µM. Further, in data set [1], the inhibition at 10 µM is 99.5%. The inhibition at 1 µM in [2] was -3%.
For `O=C(Nc1nc(-c2cccc(Br)c2)cs1)c1ccc([N+](=O)[O-])o1` the same measures were 71 µM, 98.9% and 70.4%.
The matching figures for `COc1cccc(-c2csc(NC(=O)c3ccc([N+](=O)[O-])cc3)n2)c1`: above 90 µM, -1.5% and -0.4%.
In the case of `CC(C)Oc1cccc(-c2csc(NC(=O)c3ccc([N+](=O)[O-])o3)n2)c1`, the 50% inhibitory concentration (IC50) with Vero was found to be 69.5 µM. In the data set with Staphylococcus aureus [4], the minimal inhibitory concentration (MIC) turned out to be 4.67 µg/mL (≈ 12.5 µM). The compound further had a solubility at 0.5 h in data set [5] of 0.27 µg/mL (≈ 0.723 µM). In data set [6], this compound returned an MIC90 of 0.47 µg/mL (≈ 1.26 µM). The inhibition at 10 µM in data set [1] came out at 99.2%. Moreover, the inhibition at 1 µM in [2] is 97.8%.
With `O=C(Nc1nc(-c2cccc(NC(=O)C3CCC3)c2)cs1)c1ccc([N+](=O)[O-])o1`, in data set [2], the inhibition at 1 µM was 1.9%.
Regarding `O=C(Nc1nc(-c2ccccc2)cs1)c1ccc([N+](=O)[O-])o1`, the half-maximal inhibitory concentration (IC50) in the data set with Vero amounted to 41.7 µM. In [1], the inhibition at 10 µM was determined as 99.5%. Further, the inhibition at 1 µM in data set [2] was 37.2%.
The matching figures for `CC(=O)Nc1cccc(-c2csc(NC(=O)c3ccc([N+](=O)[O-])o3)n2)c1`: 57.6 µM, 99.4% and 40.6%.
With `O=C(Nc1nc(-c2cccc(NC(=O)C3CCCCC3)c2)cs1)c1ccc([N+](=O)[O-])o1`, in the data set with Vero, the IC50 amounted to 21.9 µM. In the data set with Staphylococcus aureus [4], the MIC came to 2.75 µg/mL (≈ 6.24 µM). Moreover, the solubility at 0.5 h in data set [5] was 3.46 µg/mL (≈ 7.86 µM). In data set [6], the MIC90 was determined as 0.28 µg/mL (≈ 0.636 µM). Further, the inhibition at 10 µM in data set [1] turned out to be 99.1%. Further, the inhibition at 1 µM in [2] is 98.9%.
Take `O=C(Nc1cccc(-c2csc(NC(=O)c3ccc([N+](=O)[O-])o3)n2)c1)c1cccc(C(F)(F)F)c1`: the inhibition at 1 µM in data set [2] turned out to be 13.7%.
For `O=C(Nc1nc(-c2cccc(C(F)(F)F)c2)cs1)c1ccc([N+](=O)[O-])o1`, the IC50 in the data set with Vero came out at 23.9 µM. Also, the inhibition at 10 µM in [1] is 98.6%. The inhibition at 1 µM in data set [2] is 67%.
For `O=C(Nc1cccc(-c2csc(NC(=O)c3ccc([N+](=O)[O-])o3)n2)c1)c1ccc(F)cc1`, the inhibition at 1 µM in data set [2] was determined as 39.8%.
With `O=C(Nc1nc(-c2cccc(OC3CCCC3)c2)cs1)c1ccc([N+](=O)[O-])o1`, the half-maximal inhibitory concentration (IC50) in the data set with Vero was determined as 81.1 µM. Besides, the MIC with Staphylococcus aureus [4] is 4.99 µg/mL (≈ 12.5 µM). The compound further returned a solubility at 0.5 h in [5] of 0.027 µg/mL (≈ 0.0676 µM). The compound also displayed an MIC90 in data set [6] of 1 µg/mL (≈ 2.5 µM). In addition, in data set [1], the inhibition at 10 µM was found to be 99.3%. Also, in data set [2], the inhibition at 1 µM came out at 97.9%.
With `O=C(Nc1nc(-c2cccc(F)c2)cs1)c1ccc([N+](=O)[O-])o1`, in the data set on Vero, the IC50 is 51.6 µM. Besides, in the data set on Staphylococcus aureus [4], the MIC is 4.17 µg/mL (≈ 12.5 µM). The concentration in solution in [5] (solubility at 0.5 h) was 14.8 µg/mL (≈ 44.5 µM). The compound further gave an MIC90 in [6] of 0.83 µg/mL (≈ 2.49 µM). For the same compound, the inhibition at 10 µM in data set [1] turned out to be 99.6%. For the same compound, the inhibition at 1 µM in data set [2] was found to be 95.7%.
As to `COc1cccc(-c2csc(NC(=O)c3ccco3)n2)c1`, in the data set on Vero, the IC50 is above 90 µM. Further, in [1], the inhibition at 10 µM was -0.9%. The inhibition at 1 µM in [2] amounted to 1.9%.
Turning to `O=C(O)c1cn(C2CC2)c2cc(N3CCNCC3)c(F)cc2c1=O` [CIPROFLOXACIN], the minimum inhibitory concentration (MIC) in the data set on Staphylococcus aureus [4] amounted to 0.26 µg/mL (≈ 0.785 µM). For the same compound, the MIC90 in [6] turned out to be 1.04 µg/mL (≈ 3.14 µM). The inhibition at 10 µM in data set [1] is 99.7%. In addition, the inhibition at 1 µM in [2] turned out to be 99.6%.

The IC50 is the concentration that inhibits the measured activity by half. As usually defined, the inhibition is the drop in the measured response relative to a control, in per cent. What is called MIC is the lowest concentration found to suppress growth. Usually solubility stands for how much of the substance goes into solution per volume.
